Measured values published in BindingDB's records for doi:10.1021/jm00048a016 (National Cancer Institute-Frederick, 1994).

Molecular target: Gastrin/cholecystokinin type B receptor (Cavia porcellus)
Test: Tested for the 50% inhibition level against [125I]- gastrin binding to guinea pig gastric glands

SMILES | EC50 [µM]
CSCC[C@H](NC(=O)[C@H](Cc1c[nH]c2ccccc12)NC(=O)CCNC(=O)CCC(=O)N(Cc1ccccc1)N=NCCCl)C(=O)N[C@@H](CC(=O)O)C(=O)N[C@@H](Cc1ccccc1)C(N)=O [CBS-5] | 0.08
CSCC[C@H](NC(=O)[C@H](Cc1c[nH]c2ccccc12)NC(=O)CCC(=O)N(Cc1ccccc1)N=NCCCl)C(=O)N[C@@H](CC(=O)O)C(=O)N[C@@H](Cc1ccccc1)C(N)=O [CBS-4] | 0.13
